The values below come from EP0543555A1, “Phosphorylated flavanoids in the treatment of viral diseases” (MERRELL DOW PHARMACEUTICALS INC., priority 1991, dated 1993).

For experiment [1], the system named is HIV-1. The experiment in a line: microbe, parasite or virus in culture.
Experimental: (§1) JM cells were infected with HIV-1 for 2 hours at room temperature. The cells were then washed and distributed into duplicate wells containing different concentrations of the test compound and incubated at 37°C. On days 3 and 4 the cells were observed and the syncytia counted and on day 4 the supernatant fluid was also harvested for detection of p24 viral core antigen using the Abbott EIA.
Experiment [2] deals with HIV-1. To be noted: for p24: day 4 supernatant.
Experimental: as §1
[3] abbreviates: Human immunodeficiency virus 1, 72 h, read-out: Mean Syncytial Counts Day 3 %.
Setting [4] is: Human immunodeficiency virus 1, 96 h, read-out: Mean Syncytial Counts Day 4 %.

Molecules are shown by their SMILES. Where two headings read alike, the source gives them in different places.

As to `Nc1ccn([C@H]2CC[C@@H](CO)O2)c(=O)n1` [ddC, reference compound], in the experiment with HIV-1 [1] (setting [3]), the activity at 0.1 µM worked out at 37%, the activity at 0.3 µM is 0%, the activity at 1 µM is 0% and the activity at 3 µM came out at 0%. In addition, the activity at 10 µM in the experiment with HIV-1 [1] (setting [3]) amounted to 0%. For the same molecule, in the experiment on HIV-1 [1] (setting [4]), the activity at 0.1 µM worked out at 37%, the activity at 0.3 µM turned out to be 7%, the activity at 1 µM amounted to 0% and the activity at 3 µM amounted to 0%. The activity at 10 µM with HIV-1 [1] (setting [4]) is 0%. Further, in the experiment with HIV-1 [2] (Conc 0.1 µM), the “Mean Syncytial Counts Day 3” value was 21 and the “Mean Syncytial Counts Day 4” value was 31. Besides, in the experiment with HIV-1 [2] (Conc 0.3 µM), the “Mean Syncytial Counts Day 3” value stood at 0, the “Mean Syncytial Counts Day 4” value amounted to 6 and the “p24” value was determined as 341 pg/mL. Moreover, in the experiment with HIV-1 [2] (Conc 1 µM), the “Mean Syncytial Counts Day 3” value is 0, the “Mean Syncytial Counts Day 4” value worked out at 0 and the “p24” value was 199 pg/mL. In the experiment with HIV-1 [2] (Conc 3 µM), the “Mean Syncytial Counts Day 3” value is given as 0, the “Mean Syncytial Counts Day 4” value came to 0 and the “p24” value was 98 pg/mL. In the experiment with HIV-1 [2] (Conc 10 µM), the “Mean Syncytial Counts Day 3” value was 0, the “Mean Syncytial Counts Day 4” value worked out at 0 and the “p24” value was 132 pg/mL.
